Several values for one entry are separate records, joined by “and”; a condition that tells them apart may be missing. Equal values may be shown once.
Tested on: mouse counterpart genes
Assay: Mouse GeneChip (MG-U74A to MG-U74C) analysis of lung and trachea of the OVA antigen-exposed bronchial hypersensitivity model, S-Sal group versus S-OVA group
Format: in vivo
[1] = S-Sal vs S-OVA group, 2nd, P/A: P
[2] = S-Sal vs S-OVA group, 3rd, P/A: A
[3] = S-Sal vs S-OVA group, 3rd, P/A: P

ovalbumin [OVA antigen, ovalbumin antigen used for sensitization and inhalation to induce bronchial hypersensitivity in mice]
Fold Change, cathepsin C (mouse Probe ID 101019_at) [1]: 1.1
Fold Change, dual specificity phosphatase 14 (mouse Probe ID 162702_at) [1]: 1.1
Fold Change, expressed sequence AI839647 (mouse Probe ID 110839_at) [1]: 0.833
Fold Change, integrin-associated protein (mouse Probe ID 103611_at) [1]: 1
Fold Change, neutrophil cytosolic factor 2 (mouse Probe ID 102326_at) [1]: 2.2
Fold Change, reticulocalbin 2 (mouse Probe ID 93281_at) [1]: 0.833
Fold Change, ribosomal protein S16 (mouse Probe ID 97647_at) [1]: 1
Fold Change, serine (or cysteine) proteinase inhibitor, clade B (ovalbumin), member 2 (mouse Probe ID 92978_s_at) [1]: 0.455
Fold Change, signal transducer and activator of transcription 1 (mouse Probe ID 101465_at) [1]: 1.6
Fold Change, signal transducer and activator of transcription 1 (mouse Probe ID 114635_at) [1]: 1.9
Fold Change, zinc finger protein 263 (mouse Probe ID 109154_at) [1]: 0.833
Fold Change, DNA-damage inducible transcript 3 (mouse Probe ID 101429_at) [2]: 0.625
Fold Change, RAS guanyl releasing protein 1 (mouse Probe ID 98307_at) [2]: 1.3
Fold Change, RAS guanyl releasing protein 1 (mouse Probe ID 167498_i_at) [2]: 2.4
Fold Change, RIKEN cDNA A2301D9K23 gene (mouse Probe ID 163453_at) [2]: 1.4
Fold Change, acid phosphatase 5, tartrate resistant (mouse Probe ID 162543_r_at) [2]: 8.7
Fold Change, cathepsin C (mouse Probe ID 161251_f_at) [2]: 1.2
Fold Change, dual specificity phosphatase 14 (mouse Probe ID 165144_r_at) [2]: 1.1
Fold Change, dual specificity phosphatase 14 (mouse Probe ID 171285_at) [2]: 2.3
Fold Change, keratin complex 1, acidic, gene 16 (mouse Probe ID 103589_at) [2]: 1.1
Fold Change, keratin complex 1, acidic, gene 16 (mouse Probe ID 164428_i_at) [2]: 0.625
Fold Change, nuclear factor, interleukin 3, regulated (mouse Probe ID 164758_i_at) [2]: 1.3
Fold Change, ribosomal protein S16 (mouse Probe ID 169860_r_at) [2]: 1.1
Fold Change, serine (or cysteine) proteinase inhibitor, clade B (ovalbumin), member 2 (mouse Probe ID 92978_s_at) [2]: 1.7
Fold Change, serine (or cysteine) proteinase inhibitor, clade B (ovalbumin), member 2 (mouse Probe ID 137166_r_at) [2]: 1.2
Fold Change, ubiquitin D (mouse Probe ID 92715_at) [2]: 0.625
Fold Change, ubiquitin D (mouse Probe ID 168938_r_at) [2]: 1.4
Fold Change, ubiquitin D (mouse Probe ID 169362_f_at) [2]: 0.667
Fold Change, DEAD (aspartate-glutamate-alanine-aspartate) box polypeptide 5 (mouse Probe ID 93493_at) [3]: 1.1
Fold Change, DEAD (aspartate-glutamate-alanine-aspartate) box polypeptide 5 (mouse Probe ID 113899_at) [3]: 1.4
Fold Change, RIKEN cDNA 4933419D20 gene (mouse Probe ID 97442_at) [3]: 0.833
Fold Change, RIKEN cDNA 4933419D20 gene (mouse Probe ID 112237_at) [3]: 1
Fold Change, acid phosphatase 5, tartrate resistant (mouse Probe ID 98859_at) [3]: 1.7
Fold Change, cathepsin C (mouse Probe ID 101019_at) [3]: 1
Fold Change, cytokine inducible SH2-containing protein 1 (mouse Probe ID 92832_at) [3]: 1.5
Fold Change, dual specificity phosphatase 14 (mouse Probe ID 162702_at) [3]: 1
Fold Change, expressed sequence AI463430 (mouse Probe ID 112883_at) [3]: 1.5
Fold Change, fatty acid binding protein 4, adipocyte (mouse Probe ID 100567_at) [3]: 1.1
Fold Change, integrin-associated protein (mouse Probe ID 103611_at) [3]: 1
Fold Change, neutrophil cytosolic factor 2 (mouse Probe ID 102326_at) [3]: 1.2
Fold Change, ribosomal protein S16 (mouse Probe ID 97647_at) [3]: 1
Fold Change, signal transducer and activator of transcription 1 (mouse Probe ID 101465_at) [3]: 1
Fold Change, signal transducer and activator of transcription 1 (mouse Probe ID 114635_at) [3]: 1.1
Fold Change, ubiquitin fusion degradation 1 like (mouse Probe ID 93303_at) [3]: 1.3
Fold Change, zinc finger protein 263 (mouse Probe ID 109154_at) [3]: 1.3
Fold Change, A kinase (PRKA) anchor protein 10 (mouse probe 163162_at) (mouse, in vivo): 0.769
Fold Change, DNA segment. Chr 16. ERATO Doi 269, expressed (mouse probe 97821_at) (mouse, in vivo): 0.909
Fold Change, DNA segment. Chr 16. ERATO Doi 269, expressed (mouse probe 97822_at) (mouse, in vivo): 0.909
Fold Change, DnaJ (Hsp40) homolog, subfamily A, member 1 (mouse Probe ID 97261_at) (mouse, in vivo): 0.909
Fold Change, ESTs AI844322 (mouse Probe ID 110469_at) (mouse, in vivo): 0.909 and 0.769
Fold Change, MP and activin membrane-bound inhibitor, homolog (Xanopus laevis) (mouse probe 162531_at) (mouse, in vivo): 0.769
Fold Change, RIKEN cDNA 6330404C01 gene (mouse Probe ID 166590_at) (mouse, in vivo): 0.769
Fold Change, RIKEN cDNA A2301D9K23 gene (mouse Probe ID 166475_r_at) (mouse, in vivo): 0.714
Fold Change, SAM domain and HD domain, 1 (mouse Probe ID 103080_at) (mouse, in vivo): 0.909
Fold Change, a disintegrin and metalloprotease domain 8 (mouse probe 103024_at) (mouse, in vivo): 0.769
Fold Change, a disintegrin and metalloprotease domain 28 (mouse probe 101723_r_at) (mouse, in vivo): 0.714 and 0.769
Fold Change, acid phosphatase 5, tartrate resistant (mouse Probe ID 98859_at) (mouse, in vivo): 0.769
Fold Change, cadherin 6 (mouse Probe ID 101730_at) (mouse, in vivo): 0.714
Fold Change, cathepsin C (mouse Probe ID 101020_at) (mouse, in vivo): 0.909
Fold Change, cholesterol 25-hydroxylase (mouse probe 133666_at) (mouse, in vivo): 0.909 and 0.769
Fold Change, claudin 5 (mouse probe 104516_at) (mouse, in vivo): 0.769
Fold Change, decay accelerating factor 1 (mouse probe 164905_r_at) (mouse, in vivo): 0.769
Fold Change, dipeptidylpeptidase 4 (mouse Probe ID 92634_at) (mouse, in vivo): 0.714
Fold Change, dual specificity phosphatase 14 (mouse Probe ID 171285_at) (mouse, in vivo): 0.909
Fold Change, expressed sequence AI463430 (mouse Probe ID 112883_at) (mouse, in vivo): 0.909
Fold Change, expressed sequence AI839647 (mouse Probe ID 110839_at) (mouse, in vivo): 0.909
Fold Change, fatty acid binding protein 4, adipocyte (mouse Probe ID 100567_at) (mouse, in vivo): 0.714
Fold Change, fetuin beta (mouse Probe ID 108524_at) (mouse, in vivo): 0.714
Fold Change, fructose bisphosphatase 1 (mouse Probe ID 96918_at) (mouse, in vivo): 0.769
Fold Change, growth arrest and DNA-damage-inducible 45 gamma (mouse Probe ID 109336_at) (mouse, in vivo): 0.909
Fold Change, hydroxysteroid (17-beta) dehydrogenase 2 (mouse Probe ID 101891_at) (mouse, in vivo): 0.909
Fold Change, hydroxysteroid (17-beta) dehydrogenase 2 (mouse Probe ID 166141_i_at) (mouse, in vivo): 0.714
Fold Change, hydroxysteroid (17-beta) dehydrogenase 2 (mouse Probe ID 169670_at) (mouse, in vivo): 0.769 and 0.909
Fold Change, intercellular adhesion molecule (mouse Probe ID 96752_at) (mouse, in vivo): 0.714
Fold Change, interferon gamma inducible protein 30 (mouse probe 164423_at) (mouse, in vivo): 0.714
Fold Change, interleukin 1 receptor-like 1 (mouse probe 98501_at) (mouse, in vivo): 0.769
Fold Change, low density lipoprotein receptor-related protein associated protein 1 (mouse probe 100086_at) (mouse, in vivo): 0.714
Fold Change, low density lipoprotein receptor-related protein associated protein 1 (mouse probe 161988_f_at) (mouse, in vivo): 0.714
Fold Change, matrix metalloproteinase 7 (mouse probe 162318_r_at) (mouse, in vivo): 0.769
Fold Change, membrane-associated protein 17 (mouse probe 96935_at) (mouse, in vivo): 0.909
Fold Change, neurotrophic tyrosine kinase, receptor type 1 (mouse probe 110116_at) (mouse, in vivo): 0.909
Fold Change, nitric oxide synthase 2, inducible, macrophage (mouse Probe ID 104420_at) (mouse, in vivo): 0.714
Fold Change, nuclear factor, interleukin 3, regulated (mouse Probe ID 164758_i_at) (mouse, in vivo): 0.714
Fold Change, osteoblast specific factor 2 (fasciclin I-like) (mouse Probe ID 92593_at) (mouse, in vivo): 0.909
Fold Change, phosphotidylinositol transfer protein, beta (mouse probe 102696_s_at) (mouse, in vivo): 0.714
Fold Change, polycystic kidney disease 2 (mouse probe 100951_at) (mouse, in vivo): 0.769
Fold Change, procollagen lysine, 2-oxoglutarate 5-dioxygenase 2 (mouse Probe ID 114376_at) (mouse, in vivo): 0.909
Fold Change, reticulocalbin 2 (mouse Probe ID 93281_at) (mouse, in vivo): 0.909
Fold Change, serine (or cysteine) proteinase inhibitor, clade B (ovalbumin), member 6 (mouse Probe ID 96060_at) (mouse, in vivo): 0.714
Fold Change, sialyltransferase 1 (beta-galactoside alpha-2,6-sialyltransferase) (mouse Probe ID 167200_r_at) (mouse, in vivo): 0.769 and 0.909
Fold Change, thioredoxin reductase 1 (mouse Probe ID 99985_at) (mouse, in vivo): 0.909
Fold Change, thioredoxin reductase 1 (mouse Probe ID 161284_r_at) (mouse, in vivo): 0.909 and 0.769
Fold Change, transforming growth factor, beta 2 (mouse Probe ID 93300_at) (mouse, in vivo): 0.769
Fold Change, transmembrane 4 superfamily member 8 (mouse Probe ID 97912_at) (mouse, in vivo): 0.769
Fold Change, ubiquitin D (mouse Probe ID 92715_at) (mouse, in vivo): 0.714
Fold Change, zinc finger protein 263 (mouse Probe ID 109154_at) (mouse, in vivo): 0.769

— patent US20050208496A1, “Methods of testing for bronchial asthma or chronic obstructive pulmonary disease” (Genox Research, Inc., priority 2002, published 2005)
